Here are results for 2 molecules from patent publication US20090247647A1, “Method of Stimulating Proteoglycan Synthesis in Cells” (priority 2006, published 2009).

This assay concerns avian growth plate (GP) chondrocytes. The experiment in a line: Proteoglycan levels (dimethylmethylene blue assay) in primary growth plate chondrocyte cultures treated with vitamin D3 metabolites. It is filed as cell-based, hybrid broiler-strain chickens. As to the method: Time and dosage-dependent effects of 1,25(OH)2 Vitamin D3 and 24,25(OH)2 Vitamin D3 on primary cultures of pre- and post-confluent avian growth plate (GP) chondrocytes were examined. Cultures were grown either in a serum-containing culture medium designed to closely mimic normal GP extracellular fluid (DATP5) or a serum-free culture medium. A variety of cellular parameters were measured including proteoglycan (PG), lactate dehydrogenase (LDH) and alkaline phosphatase (ALP) activity and calcium and phosphate mineral deposition in the extracellular matrix were also measured.
To develop the cell cultures, epiphyseal growth plates were dissected from the tibiae of a large number of 6-8-week-old hybrid broiler-strain chickens. The plates were pooled and the chondrocytes isolated. For these studies, the isolated cells were distributed into 320 identical primary cultures grown in 35 mm dishes in DMEM (2 ml per dish) with 10% fetal bovine serum for the first 3-4 days. Culture media were changed and a supplement of fresh ascorbic acid (25-50 μg/ml) added every 3-4 days for the duration of the experiments. From day 7 onward for 160 of the cultures, the medium was changed to DATP5 mineralization medium. To the other 160 dishes on day 7 the medium was changed to DMEM:HL-1 (1:1) and from day 10 onward to HL-1 serum-free medium (Biowhittaker, Walkersville, Md.). HL-1 chemically defined proprietary media contains transferrin, testosterone, sodium selenite, ethanolamine, saturated and unsaturated fatty acids, and stabilizing proteins (less than 30 μg/ml) and is supplemented with 10 mM β-glycerophosphate. […] All culture media contained 100 IU/ml of penicillin, 100 μg/ml streptomycin, and 0.25 μg/ml amphotericin B.
Administration of the vitamin D3 metabolites was initiated either before the cells attained confluence (Day 7, pre-confluent tests), or after they had become confluent (Day 14, post-confluent tests), and continued as indicated. Stock solutions (2 mM) of the vitamin D3 metabolites were prepared and further diluted in ethanol so that 2 μl of the test solution was added to 2 ml of culture medium.
To analyze biochemical activities, cells were harvested from the mm dishes in 1 ml TMT buffer (50 mM Tris, pH 7.5, 0.5 mM MgCl2, 0.05% Triton X-100), the samples being sonicated in a water-bath. Aliquots were taken from each sample for analysis of the following seven parameters: alkaline phosphatase (ALP) and lactate dehydrogenase (LDH) activities, Hoechst DNA, Lowry protein, proteoglycan (PG) and Ca^2+ and Pi mineral content. […] Bovine serum albumin was used as a standard. Proteoglycan content of the cell matrix was analyzed using the dimethylmethylene blue reagent 11 measuring the absorbency difference at 520 and 589 nm. The assay is based on the ability of the sulfated glycosaminoglycans to bind to the cationic dye, dimethylmethylene blue, in solution.
Thus within each sample, the seven parameters were analyzed and subsequently compared. Overall statistical analysis of differences between the various treatment parameters was performed using ANOVA with post hoc Tukey HSD multiple comparisons.

Where [1] appears, read: pre-confluent cultures, serum-containing DATP5 medium, early exposure (Day 7-17).

As to `C=C1/C(=C\C=C2/CCC[C@]3(C)[C@@H]([C@H](C)CCCC(C)(C)O)CC[C@@H]23)C[C@@H](O)C[C@@H]1O` [1,25(OH)2D3, 1,25 Hydroxyvitamin D3], the “effect of high levels on proteoglycan levels” value (post-confluent treatment (from Day 14), both serum-containing and serum-free cultures) is reported as “no longer inhibitory, but actually increased proteoglycan levels”. Besides, the “effect on proteoglycan levels” value under setting [1] is reported as “marked dosage-dependent increase”. The “increase in proteoglycan levels over the control” value (pre-confluent cultures, serum-containing DATP5 medium, early exposure (Day 7-17), 10 nM) was “more than four-fold”. Also, for the setting “pre-confluent cultures, serum-free HL-1 medium, 10 nM”, the “effect of supra-physiological levels on proteoglycan levels” value is “marked reduction in proteoglycan levels”. Also, the “maximal stimulation of proteoglycan levels” value (pre-confluent cultures, serum-free HL-1 medium, Day 24) is around 7 fold.

Take `C=C1CC[C@H](O)C/C1=C/C=C1\CCC[C@]2(C)[C@@H]([C@H](C)CC[C@@H](O)C(C)(C)O)CC[C@@H]12` [24,25(OH)2D3, 24,25 Hydroxyvitamin D3]: the effect on proteoglycan entry (post-confluent exposure (from Day 14)) is reported as “only small effects”. Further, the “effect on proteoglycan levels” value runs as follows: under setting [1], “minimal stimulation”; (pre-confluent cultures, serum-containing DATP5 medium, longer exposure) “significant increases in proteoglycan levels, equal to or greater than those caused by 1,25(OH)2D3”. Moreover, the “concentration of maximal stimulation of proteoglycan levels” value (pre-confluent cultures, serum-free HL-1 medium) came out at 10 nM. For the same molecule, where the note is “pre-confluent cultures, serum-free media”, the “effect on proteoglycan formation” value is reported as “stimulated proteoglycan formation”. The “effect of supra-physiological levels on proteoglycan formation” value (pre-confluent cultures, serum-free media, 100 nM) is on record as “inhibitory to proteoglycan formation”. Further, where the note is “pre-confluent cultures, serum-free media, at 10 nM”, the “maximal effects on proteoglycan formation relative to those with 1,25(OH)2D3” value is given as “only about half”.
